{
  "source": "paper PMC6379368",
  "about": "“Extracellular and intracellular small-molecule galectin-3 inhibitors” (Scientific Reports, 2019)",
  "key": {"MIA PaCa-2 cells [1]": {"test_system": "MIA PaCa-2 cells", "experiment": "Growth curves, MIA PaCa-2", "assay_type": "cell-based", "details": "MIA PaCa-2, 10 µM", "procedure": "(§1) METHODS (not described in main article)\n(§2) The AsPC-1, BxPc-3, MIA PaCa-2, and PanC-1 pancreatic cancer cell lines were purchased from the American Type Culture Collection (ATCC) (Manassas, VA, USA). AsPC-1 and BxPc-3 cell lines were cultured in RPMI-1640 medium, and MIA PaCa-2 and PanC-1 in Dulbecco's Modified Eagle Medium (DMEM)/Ham's F12 medium mixture (1:1). The medium of all four pancreatic cancer cell lines was supplemented with 10 % fetal bovine serum (FBS), 100 U/ml penicillin, and 100 μg/ml streptomycin. The L56Br-C1 breast cancer cell line was established at Lund University (Lund, Sweden)1, and was cultured in RPMI-1640 medium supplemented with 10 % heat-inactivated FBS, 100 U/ml penicillin, 100 μg/ml streptomycin, 1 mM non-essential amino acids, and 10 µg/ml insulin. The MCF-10A normal-like breast cell line was obtained from ATCC and was cultured in the same medium mixture as L56Br-C1 with the addition of 20 ng/ml epidermal growth factor, 50 ng/ml cholera toxin, and 500 ng/ml hydrocortisone.\n(§3) Fluorescence anisotropy assay\n(§4) The affinity between inhibitor 1 and the carbohydrate recognition domain (CRD) of galectin-8C and between inhibitor 3 and the CRD of galectin-2, -4N, -4C, 8C, and -9C was determined using the fluorescence anisotropy assay described in the main article. Experimental conditions used for each galectin […]"}, "PanC-1 cells": {"test_system": "PanC-1 cells", "experiment": "Growth curves, PanC-1", "assay_type": "cell-based", "details": "PanC-1, 10 µM", "procedure": "as §1, §2, §3, §4"}, "BxPc-3 cells [2]": {"test_system": "BxPc-3 cells", "experiment": "Growth curves, BxPc-3", "assay_type": "cell-based", "details": "BxPc-3, 10 µM", "procedure": "as §1, §2, §3, §4"}, "BxPc-3 cells [3]": {"test_system": "BxPc-3 cells", "experiment": "MTT assay, BxPc-3 pancreatic cancer cells", "assay_type": "cell-based", "details": "BxPc-3, 72 hours", "procedure": "(§5) The MTT (3-[4,5-dimethylthiazol-2-yl]−2,5-diphenyltetrazolium bromide) assays were performed as previously described. In brief, cells were seeded in 96-well plates (6000 cells/well for MCF-7 and HCC1937 and 5000 cells for JIMT-1 in 180 μl fully-supplemented medium as described under Cell culture). The cells were incubated for 24 hours before addition of galectin-3 inhibitors. The inhibitors were diluted in PBS from their respective stock solution in DMSO (see Galectin-3 inhibitors) and used at final concentrations ranging from 0.04 to 40 μM. DMSO was adjusted to make the final DMSO concentration 0.2% for all inhibitor concentrations, including the control sample (no inhibitor). After 72 hours of treatment, 20 μl of 5 mg/ml MTT solution (in PBS) was added to each well and incubation continued for 1 hour at 37 °C. […] Absorbance was monitored at 540 nm using a Labsystems iEMS Reader MF (Labsystems Oy, Helsinki, Finland) and the software DeltaSoft II v.4.14 (Biometallics Inc., Princeton, NJ, USA). […]\nas §3\n(§6) The affinity between inhibitor 1 and the carbohydrate recognition domain (CRD) of galectin-8C and between inhibitor 3 and the CRD of galectin-2, -4N, -4C, 8C, and -9C was determined using the fluorescence anisotropy assay described in the main article. […]"}, "MIA PaCa-2 cells [4]": {"test_system": "MIA PaCa-2 cells", "experiment": "MTT assay, MIA PaCa-2 pancreatic cancer cells", "assay_type": "cell-based", "details": "MIA PaCa-2, 72 hours", "procedure": "as §5, §3, §6"}, "JIMT-1 cells": {"test_system": "JIMT-1 cells", "experiment": "MTT cell viability assay, JIMT-1", "assay_type": "cell-based", "details": "JIMT-1, 72 hours, 0.04–40 µM for 1 and 2, 0.04–20 µM for 3", "procedure": "The MTT (3-[4,5-dimethylthiazol-2-yl]−2,5-diphenyltetrazolium bromide) assays were performed as previously described. […] The cells were incubated for 24 hours before addition of galectin-3 inhibitors. The inhibitors were diluted in PBS from their respective stock solution in DMSO (see Galectin-3 inhibitors) and used at final concentrations ranging from 0.04 to 40 μM. DMSO was adjusted to make the final DMSO concentration 0.2% for all inhibitor concentrations, including the control sample (no inhibitor). After 72 hours of treatment, 20 μl of 5 mg/ml MTT solution (in PBS) was added to each well and incubation continued for 1 hour at 37 °C. Thereafter, the MTT containing medium was removed and 100 μl of DMSO was added per well and the plates swirled gently for 10 minutes to dissolve the cells and the purple formazan product precipitate. Absorbance was monitored at 540 nm using a Labsystems iEMS Reader MF (Labsystems Oy, Helsinki, Finland) and the software DeltaSoft II v.4.14 (Biometallics Inc., Princeton, NJ, USA)."}, "[5]": {"test_system": "pathological corneal neovascularization and fibrosis", "set-up": "method as in PMID 27356186, PMID 28055102", "details": "cited from earlier work"}},
  "data": [
    {"compound": "OC[C@H]1O[C@@H](S[C@@H]2O[C@H](CO)[C@H](O)[C@H](n3cc(-c4cccc(F)c4)nn3)[C@H]2O)[C@H](O)[C@@H](n2cc(-c3cccc(F)c3)nn2)[C@H]1O", "note": "[compound 1]", "values": [
      {"measurement": "cell proliferation (growth curves)", "setting": "MIA PaCa-2 cells [1]", "result": "no effect"},
      {"measurement": "cell proliferation (growth curves)", "setting": "PanC-1 cells", "result": "no effect"},
      {"measurement": "cell proliferation (growth curves)", "setting": "BxPc-3 cells [2]", "result": "no effect"},
      {"measurement": "toxicity (MTT)", "setting": "BxPc-3 cells [3]", "result": "low toxicity"},
      {"measurement": "toxicity (MTT)", "setting": "MIA PaCa-2 cells [4]", "result": "low toxicity"},
      {"measurement": "cell viability (MTT)", "setting": "JIMT-1 cells", "result": "no apparent change in cell viability"},
      {"measurement": "effect in pathological corneal neovascularization and fibrosis", "setting": "[5]", "result": "therapeutic effects"}
    ]}
  ]
}
